Results reported in patent US11672841B2, “Methods for treating heart disease in a subject with Friedreich's ataxia by an aromatic-cationic peptide” (Stealth BioTherapeutics Inc., priority 2013, dated 2023).
Non-standard residues stand in square brackets, D forms with d. Residues, ends and D or L forms follow the SMILES beside them. No end group written: not given here. Dmt = Cc1cc(O)cc(C)c1C[C@H](N)C(=O)O

Tests used:
[1] = test system: several mammalian cell types; details: energy-independent manner (Zhao, et al., 2003); cited from earlier work
[2] = test system: fibroblasts from Friedreich's ataxia (FRDA) patients; details: 1-10 μM peptide 24 hours, then 5 μm Fe/HQ for 5 hours
Procedure: Iron with hydroquinone (HQ) induces oxidative stress in cells because HQ forms a lipophilic chelate with iron and rapidly transfers the metal across the normally impermeable plasma membrane.
After 24 hours, the media is changed and the cells are treated with 5 μm Fe/HQ for 5 hours.

mu-opioid receptor = mu-opioid receptor (Homo sapiens, UniProt P35372); assay: Mu-opioid receptor agonist activity; details: stated without a test
mu-opioid receptor, sequence (P35372 whole entry, species assumed): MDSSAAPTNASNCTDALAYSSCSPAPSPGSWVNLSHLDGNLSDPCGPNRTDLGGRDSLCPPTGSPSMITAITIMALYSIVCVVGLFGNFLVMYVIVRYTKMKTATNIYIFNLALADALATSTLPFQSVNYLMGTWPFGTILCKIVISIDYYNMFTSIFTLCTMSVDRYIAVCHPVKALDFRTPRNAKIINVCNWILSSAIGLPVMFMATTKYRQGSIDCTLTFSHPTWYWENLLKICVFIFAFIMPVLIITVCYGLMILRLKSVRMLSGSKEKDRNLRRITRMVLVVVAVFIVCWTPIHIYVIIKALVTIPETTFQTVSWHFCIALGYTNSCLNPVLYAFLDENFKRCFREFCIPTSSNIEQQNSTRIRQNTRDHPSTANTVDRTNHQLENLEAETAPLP

2′,6′-Dmt-D-Arg-Phe-Lys-NH2
penetration of the plasma membrane [1]: readily penetrates the plasma membrane

Cc1cc(O)cc(C)c1C[C@H](NC(=O)[C@H](N)CCCNC(=N)N)C(=O)N[C@@H](CCCCN)C(=O)N[C@@H](Cc1ccccc1)C(N)=O [D-Arg-2′,6′-Dmt-Lys-Phe-NH2] (H-[dR][Dmt]KF-NH2)
survival and cytotoxicity by morphologic appearance [2]: reduced evidence of cytotoxicity

F[dR]FK-NH2
mu-opioid receptor agonist activity (mu-opioid receptor): does not have mu-opioid receptor agonist activity

Tyr-D-Arg-Phe-Lys-NH2
mu-opioid receptor agonist activity (mu-opioid receptor): has mu-opioid receptor agonist activity
